Measured values published in BigSolDB 2.1.

Cl.N[C@@H](Cc1ccccc1)C(=O)OCc1ccccc1
solubility (mole fraction)
Details	283.15 K	288.15 K	293.15 K	298.15 K	303.15 K	313.15 K	323.15 K
in acetone	8e-05	–	0.000134	–	0.000224	0.000347	0.000511
in acetonitrile	5.4e-05	0.000115	0.000188	0.000262	0.000365	–	–
in ethanol	0.00311	–	0.00396	–	0.00491	0.00625	0.00832
in ethyl acetate	–	2.6e-05	3.8e-05	–	6.3e-05	0.000116	0.000181
in isobutanol	–	0.00056	0.000879	–	0.00121	0.00174	0.00256
in isopropanol	0.000417	–	0.000588	–	0.000882	0.00123	0.00178
in methanol	0.0158	–	0.0186	–	0.0223	0.0274	0.0324
in n-butanol	0.0011	–	0.0015	–	0.00191	0.00263	0.0039
in n-pentanol	0.000703	–	0.00103	–	0.00158	0.00213	0.00307
in n-propanol	0.00168	–	0.00203	–	0.00281	0.00386	0.00515
in water	0.000969	–	0.0012	–	0.0015	0.00197	0.00266
